Results taken from publication PMC8816891, “High-throughput cell-based assays for identifying antagonists of multiple smoking-associated human nicotinic acetylcholine receptor subtypes” (SLAS discovery : advancing life sciences R & D, 2021).
Where a name gives a salt, the structure may show the parent alone. Read-outs that look alike come from different tables or passages of the source. Values belong to the compound of their own block, whether it stands above or below them.

Legend:
human α4β2-nAChR [1] = biological target: T1, human α4β2-nAChR (Homo sapiens, UniProt P17787+P43681); assay: cell-based
T1 sequence (P43681 29-627 limits assumed): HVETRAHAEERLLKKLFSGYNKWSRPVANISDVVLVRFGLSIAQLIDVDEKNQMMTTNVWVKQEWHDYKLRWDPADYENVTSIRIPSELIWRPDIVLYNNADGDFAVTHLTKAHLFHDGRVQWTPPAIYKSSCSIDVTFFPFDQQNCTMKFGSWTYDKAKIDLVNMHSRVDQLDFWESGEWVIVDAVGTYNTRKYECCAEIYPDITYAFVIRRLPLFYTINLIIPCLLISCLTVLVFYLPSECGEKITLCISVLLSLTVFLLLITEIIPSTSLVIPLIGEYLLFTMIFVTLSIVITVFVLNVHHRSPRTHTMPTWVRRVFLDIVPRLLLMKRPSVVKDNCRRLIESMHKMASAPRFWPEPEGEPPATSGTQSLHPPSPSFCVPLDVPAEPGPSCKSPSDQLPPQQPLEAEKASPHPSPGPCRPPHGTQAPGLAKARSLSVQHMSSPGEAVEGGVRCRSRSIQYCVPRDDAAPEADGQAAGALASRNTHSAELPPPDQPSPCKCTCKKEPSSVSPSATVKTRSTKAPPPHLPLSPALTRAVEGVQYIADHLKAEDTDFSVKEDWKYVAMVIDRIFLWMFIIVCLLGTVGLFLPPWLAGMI
T1 sequence (P17787 26-502): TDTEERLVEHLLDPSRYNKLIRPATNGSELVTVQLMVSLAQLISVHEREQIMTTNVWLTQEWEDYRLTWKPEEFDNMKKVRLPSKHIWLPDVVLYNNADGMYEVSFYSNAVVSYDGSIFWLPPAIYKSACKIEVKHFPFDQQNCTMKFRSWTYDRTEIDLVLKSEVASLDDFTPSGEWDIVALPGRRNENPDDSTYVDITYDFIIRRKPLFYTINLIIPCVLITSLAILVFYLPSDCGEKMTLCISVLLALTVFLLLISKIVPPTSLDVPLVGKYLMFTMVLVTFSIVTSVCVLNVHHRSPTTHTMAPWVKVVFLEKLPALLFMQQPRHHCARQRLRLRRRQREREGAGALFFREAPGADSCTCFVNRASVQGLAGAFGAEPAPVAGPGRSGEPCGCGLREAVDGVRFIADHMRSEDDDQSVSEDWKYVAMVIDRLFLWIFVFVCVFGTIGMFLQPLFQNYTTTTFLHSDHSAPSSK
Method: As described in that prior publication, this SH-EP1-α6/3 β2β3-nAChR monoclone is maintained in medium supplemented with zeocin (0.25 mg/mL), hygromycin (0.13 mg/mL biologically active) and G418 (0.6 mg/mL) to maintain positive selection of transfectants, and cultured at low passage numbers (1–40 from our frozen stocks) to ensure stable expression of the phenotype.
For the SH-EP1-α4 β2-nAChR and SH-EP1-α6/3 β2β3-nAChR lines: cells were seeded into 384-well black tissue culture plates (Corning #3712) at 7000 cells per well in 50 μl assay media using a microfill (BioTek). The plates were incubated overnight at 37 °C to allow cells to adhere to the plate, then transferred to 29 °C and incubated for ~72h to maximize receptor expression. On the compound addition day, medium was aspirated and plates washed one time with wash buffer (1x HBSS with 20 mM HEPES adjusted to pH 7.4) using a BioTek ELx405 Select CW Plate Washer. Twenty-five microliters of 0.5x FLIPR Membrane Potential dye (Molecular Devices, R8034; prepared in wash buffer) was added to the plates using a microfill. The plates were further incubated at 29 °C for 60 min and background fluorescence was measured (Envision, Perkin Elmer). […] Plates were then incubated at room temperature for 20 min and fluorescence was measured again. Background fluorescence was subtracted from the final fluorescence read during data analysis.
EC50 values were calculated using nonlinear regression analysis via GraphPad Prism 7 (GraphPad software, Inc.).
After subtracting background fluorescence from fluorescent read for each plate well, the raw data were converted into a list and all plates were appended by run. For analysis purposes, each data point was annotated with well coordinate, well type, compound identifier, titer plate barcode, run identifier, date, and protocol information. Basic statistics and QC criteria were calculated within TIBCO Spotfire (v7.0.0). Basic statistics of control wells were examined by well type, by run, plate, and row/column to monitor run-to-run and plate-to-plate variation, and to exclude possible experimental issues such as striping. […] Concordance between replicates was assessed using linear regression. For each test well, the percentage of inhibition was obtained by subtracting the normalized fluorescent signal (NFS), expressed as a percentage, from 100%.

human α6/3β2β3-nAChR [2] = biological target: T2, human α6/3β2β3-nAChR (Homo sapiens, UniProt P17787+P32297+Q05901+Q15825); assay: membrane potential dye assay, SH-EP1-α6/3β2β3-nAChR cells; format: cell-based
T2 construct: expressed in transfected cells
T2 sequence (Q15825+P32297 fused with the stated changes): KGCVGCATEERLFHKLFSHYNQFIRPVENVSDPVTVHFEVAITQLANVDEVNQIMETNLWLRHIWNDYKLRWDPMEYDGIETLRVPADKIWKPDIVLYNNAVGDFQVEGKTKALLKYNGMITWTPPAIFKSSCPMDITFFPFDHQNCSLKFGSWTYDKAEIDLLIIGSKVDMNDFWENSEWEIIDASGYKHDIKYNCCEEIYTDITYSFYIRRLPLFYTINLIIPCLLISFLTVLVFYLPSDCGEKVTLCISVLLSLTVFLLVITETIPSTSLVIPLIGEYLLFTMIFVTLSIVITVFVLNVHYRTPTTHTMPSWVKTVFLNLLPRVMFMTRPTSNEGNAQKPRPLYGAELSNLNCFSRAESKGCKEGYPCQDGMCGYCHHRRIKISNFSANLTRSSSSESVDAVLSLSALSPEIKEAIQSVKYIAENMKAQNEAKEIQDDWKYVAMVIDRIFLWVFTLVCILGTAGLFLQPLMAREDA
T2 sequence (P17787 26-502): as the sequence (P17787 26-502) above
T2 sequence (Q05901 22-458): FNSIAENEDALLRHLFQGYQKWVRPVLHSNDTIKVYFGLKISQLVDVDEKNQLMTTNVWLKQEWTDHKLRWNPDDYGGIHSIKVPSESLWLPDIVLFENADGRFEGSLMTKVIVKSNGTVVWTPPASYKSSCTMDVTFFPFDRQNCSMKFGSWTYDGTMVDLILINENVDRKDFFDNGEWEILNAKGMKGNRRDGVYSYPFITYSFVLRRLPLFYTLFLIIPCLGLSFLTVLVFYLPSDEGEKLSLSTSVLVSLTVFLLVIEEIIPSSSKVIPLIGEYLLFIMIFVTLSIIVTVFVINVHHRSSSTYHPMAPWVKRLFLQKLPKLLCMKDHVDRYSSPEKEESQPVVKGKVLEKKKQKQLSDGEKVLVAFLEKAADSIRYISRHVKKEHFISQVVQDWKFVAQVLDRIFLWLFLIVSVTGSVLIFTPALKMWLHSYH
Method: (§1) Concordance between replicates was assessed using linear regression.

human α3β4-nAChR [3] = biological target: T3, human α3β4-nAChR (Homo sapiens, UniProt P30926+P32297); assay: 86Rb+ efflux orthogonal assay, SH-EP1-α3β4-nAChR cells; format: cell-based; details: 10 μM; validated = reduced specific efflux by > 3x SD vs no-drug control
T3 construct: expressed in transfected cells
T3 sequence (P32297 32-505): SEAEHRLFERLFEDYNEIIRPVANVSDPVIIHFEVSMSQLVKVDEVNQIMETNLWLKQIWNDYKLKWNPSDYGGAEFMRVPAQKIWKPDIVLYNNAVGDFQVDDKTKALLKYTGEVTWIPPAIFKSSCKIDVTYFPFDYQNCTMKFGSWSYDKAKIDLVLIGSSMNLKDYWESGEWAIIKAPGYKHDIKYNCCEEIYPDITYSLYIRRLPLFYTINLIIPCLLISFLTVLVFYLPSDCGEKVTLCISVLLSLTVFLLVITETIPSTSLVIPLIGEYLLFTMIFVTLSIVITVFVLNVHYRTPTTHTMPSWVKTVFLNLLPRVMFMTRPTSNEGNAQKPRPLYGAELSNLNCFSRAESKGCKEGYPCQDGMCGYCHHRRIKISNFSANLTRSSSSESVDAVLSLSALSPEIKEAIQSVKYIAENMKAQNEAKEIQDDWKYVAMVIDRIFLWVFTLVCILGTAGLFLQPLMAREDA
T3 sequence (P30926 22-498): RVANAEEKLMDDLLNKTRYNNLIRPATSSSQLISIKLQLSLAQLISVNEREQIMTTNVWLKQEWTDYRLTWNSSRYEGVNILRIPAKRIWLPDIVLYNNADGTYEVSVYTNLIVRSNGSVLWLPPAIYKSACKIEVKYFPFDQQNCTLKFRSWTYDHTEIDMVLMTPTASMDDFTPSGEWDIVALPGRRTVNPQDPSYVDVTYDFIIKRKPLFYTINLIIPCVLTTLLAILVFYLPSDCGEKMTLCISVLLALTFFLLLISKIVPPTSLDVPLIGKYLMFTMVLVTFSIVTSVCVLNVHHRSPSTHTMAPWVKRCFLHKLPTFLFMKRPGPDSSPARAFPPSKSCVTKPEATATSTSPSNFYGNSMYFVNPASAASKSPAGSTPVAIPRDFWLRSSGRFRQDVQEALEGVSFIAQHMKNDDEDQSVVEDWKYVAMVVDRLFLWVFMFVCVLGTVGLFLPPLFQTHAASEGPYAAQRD
Method: (§2) Cells were grown to confluence in 24-well plates (Falcon; 500 μl volume per well). The evening before each assay was to be performed, the medium was removed and replaced with 250 μl per well of complete medium supplemented with ~350,000 cpm of ^86Rb^+ (NEN; counted at 40% efficiency using Cerenkov counting and the Packard TriCarb 1900 Liquid Scintillation Analyzer). This allowed overnight loading of cells with tracer.
(§3) Determinations of antagonist efficacy were performed in triplicate in each plate, and each antagonist was tested in three separate experiments. […] Specific efflux was then taken as the difference in control samples between total and non-specific ^86Rb^+ efflux, and was used to calculate the efficacy of blocking specific efflux by the test compounds.
(§4) Fig. 4. Validation and specificity testing of HTS antagonist hits using an orthogonal assay. […] (A) All plates were normalized to internal maximum and minimum controls, as described in the Materials and Methods section. […] Activity measured at α3β4-nAChR is shown with blue symbols, that at α4β2-nAChR with red symbols, and that at α6/3 β2 β3-nAChR with green symbols. Dashed lines are color-matched to data symbols and designate the 3 X SD thresholds above the no-antagonist controls, used to determine validation of antagonist activity in each of the assays.

human α6/3β2β3-nAChR [4] = biological target: T2, human α6/3β2β3-nAChR; assay: 86Rb+ efflux orthogonal assay, SH-EP1-α6/3β2β3-nAChR cells; format: cell-based; details: 10 μM; validated = reduced specific efflux by > 3x SD vs no-drug control
Method: as §2, §3, §4

human α4β2-nAChR [5] = biological target: T1, human α4β2-nAChR; assay: 86Rb+ efflux orthogonal assay, SH-EP1-α4β2-nAChR cells; format: cell-based; set-up: expressed in transfected cells; details: 10 μM; validated = reduced specific efflux by > 3x SD vs no-drug control
Method: Cells were grown to confluence in 24-well plates (Falcon; 500 μl volume per well). The evening before each assay was to be performed, the medium was removed and replaced with 250 μl per well of complete medium supplemented with ~350,000 cpm of ^86Rb^+ (NEN; counted at 40% efficiency using Cerenkov counting and the Packard TriCarb 1900 Liquid Scintillation Analyzer). This allowed overnight loading of cells with tracer. The assay was based on a proven, routine ^86Rb^+ efflux assay “flip-plate” protocol that includes 1500 nM atropine to exclude possible contributions of muscarinic acetylcholine receptors, with test compound or control solutions applied for 30 s.
Determinations of antagonist efficacy were performed in triplicate in each plate, and each antagonist was tested in three separate experiments. […] Both determinations of non-specific efflux were equivalent. Specific efflux was then taken as the difference in control samples between total and non-specific ^86Rb^+ efflux, and was used to calculate the efficacy of blocking specific efflux by the test compounds.
Fig. 4. Validation and specificity testing of HTS antagonist hits using an orthogonal assay. […] Activity measured at α3β4-nAChR is shown with blue symbols, that at α4β2-nAChR with red symbols, and that at α6/3 β2 β3-nAChR with green symbols. […]

human α3β4-nAChR [6] = biological target: T3, human α3β4-nAChR; assay: membrane potential dye assay, SH-EP1-α3β4-nAChR cells; format: cell-based
Method: as §1

[7] = IC50, 5 min incubation, in the presence of 500nM of nicotine
[8] = IC50, 10 min incubation, in the presence of 500nM of nicotine
[9] = IC50, 20 min incubation, in the presence of 500nM of nicotine
[10] = IC50, 25 min incubation, in the presence of 500nM of nicotine
[11] = average IC50 across all time-points, averaged over 5-30 min reads, nicotine at EC90
[12] = read-out: pre-determined EC90 value

Compound: C[N+](C)(C)CCCCCC[N+](C)(C)C [hexamethonium]
IC50 (human α4β2-nAChR [1]; IC50): 71600 nM | IC50 (human α4β2-nAChR [1]; [7]): 98300 nM | IC50 (human α4β2-nAChR [1]; [8]): 100000 nM | IC50 (human α4β2-nAChR [1]; [9]): 47900 nM | IC50 (human α4β2-nAChR [1]; [10]): 38900 nM | IC50 (human α4β2-nAChR [1]; IC50, 30 min incubation, in the presence of 500nM of nicotine): 37400 nM | IC50 (human α4β2-nAChR [1]; [11]): 65800 ± 28800 nM

Compound: CNC1(C)C2CCC(C2)C1(C)C (stereo not drawn) [mecamylamine]
IC50 (human α6/3β2β3-nAChR [2]; in the presence of 500 nM nicotine (EC90), read-out: IC50 (α6/3β2β3), Fig. 2D): 1670 nM | IC50 (human α6/3β2β3-nAChR [2]; nicotine at EC90, read-out: average IC50, comparison across subtypes): 1670 nM | antagonist hit identified in HTS and validated by 86Rb+ efflux (human α3β4-nAChR [3]): identified and validated as a hit | antagonist hit identified in HTS and validated by 86Rb+ efflux (human α6/3β2β3-nAChR [4]): identified and validated as a hit | IC50 (human α4β2-nAChR [1]; IC50): 896 nM | IC50 (human α4β2-nAChR [1]; IC50 (α4β2), Fig. 2D, in the presence of 500 nM nicotine (EC90), subtype comparison): 537 nM | IC50 (human α4β2-nAChR [1]; [7]): 2250 nM | IC50 (human α4β2-nAChR [1]; [8]): 1090 nM | IC50 (human α4β2-nAChR [1]; [9]): 919 nM | IC50 (human α4β2-nAChR [1]; [10]): 983 nM | IC50 (human α4β2-nAChR [1]; average IC50, comparison across subtypes, nicotine at EC90): 540 nM | IC50 (human α4β2-nAChR [1]; [11]): 1210 ± 520 nM | antagonist hit identified in HTS and validated by 86Rb+ efflux (human α4β2-nAChR [5]): identified and validated as a hit

Compound: CN1CCC[C@H]1c1cccnc1 [nicotine, (−)-nicotine]
EC90 (human α3β4-nAChR [6]; [12]): 20000 nM | EC90 (human α6/3β2β3-nAChR [2]; [12]): 500 nM | EC90 (human α4β2-nAChR [1]; [12]): 500 nM

antagonist hit call in pilot screen (human α3β4-nAChR [6]; test compound 10 μM with 20 μM nicotine (EC90), hit = signal below mean - 3 SD): identified as a hit
Compound: CNCCC=C1c2ccccc2CCc2ccccc21 [nortriptyline hydrochloride]
